# In patent US20260337245A1, “POLYPEPTIDE OR ANALOG THEREOF AND USE THEREOF” (Shenzhen Bay Laboratory, priority 2024, published 2026):
# Starred links: 1 amine or outer side, 2 acyl side, 3 side chain; linkers in the order of their positions; H or OH if unused. Positions of bridges follow the written chain, without caps; N, C: chain ends. Non-standard residues stand in square brackets, D forms with d. Residues, ends and D or L forms follow the SMILES beside them. X1 = O=C(O)CCCCCCCCCCCCCCCCCCC(=O)N[C@@H](CCCCNC(=O)COCCOCCNC(=O)COCCOCCNC(=O)CCC(=O)N(CCNC(=O)C[*:1])CCNC(=O)C[*:2])C(=O)O; NMeR = CN[C@@H](CCCNC(=N)N)C(=O)O; hArg = N=C(N)NCCCC[C@H](N)C(=O)O; αMeF = C[C@](N)(Cc1ccccc1)C(=O)O; αMeL = CC(C)C[C@](C)(N)C(=O)O; αMeK = C[C@](N)(CCCCN)C(=O)O; Aib = CC(C)(N)C(=O)O
# Key:
# [1] = molecular target: T1, AMY3R (Homo sapiens, UniProt P30988); test: HTRF cAMP assay, AMY3R; assay type: cell-based; details: HEK293/pGM-CREB-L-Luc/AMY3R pool, read-out: IC50 of receptor AMY3R
# T1 construct: expressed in transfected cells
# T1 sequence (P30988 25-474): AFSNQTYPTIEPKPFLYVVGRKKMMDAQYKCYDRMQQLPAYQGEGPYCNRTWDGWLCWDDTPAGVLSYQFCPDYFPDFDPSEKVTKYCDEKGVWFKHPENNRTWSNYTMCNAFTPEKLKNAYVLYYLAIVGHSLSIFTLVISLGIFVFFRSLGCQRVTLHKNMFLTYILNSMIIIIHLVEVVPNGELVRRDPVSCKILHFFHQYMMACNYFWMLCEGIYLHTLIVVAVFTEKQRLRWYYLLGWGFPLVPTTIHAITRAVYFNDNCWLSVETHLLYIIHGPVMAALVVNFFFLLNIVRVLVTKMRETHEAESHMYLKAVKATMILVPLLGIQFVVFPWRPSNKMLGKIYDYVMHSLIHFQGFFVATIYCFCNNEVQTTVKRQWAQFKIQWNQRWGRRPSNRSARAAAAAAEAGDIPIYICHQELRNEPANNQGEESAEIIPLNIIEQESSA
# T1 sequence (O60896 24-148 partner): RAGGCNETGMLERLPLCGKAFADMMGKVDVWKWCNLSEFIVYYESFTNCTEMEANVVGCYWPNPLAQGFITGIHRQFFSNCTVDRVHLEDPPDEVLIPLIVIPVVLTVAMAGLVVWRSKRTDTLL
# Source text: (§1) 2. The polypeptide derivatives prepared in Example 1 and Example 2 of the present disclosure can bind to the target AMYR and CTR receptors on the cell membrane, activate the receptors and release cAMP. Therefore, the activity of the analyte can be determined by using an HTRF (homogeneous time-resolved fluorescence) method and using a cAMP detection kit. The specific steps were as follows:
# (§2) A stable transfected cell line of HEK293/pGM-CREB-L-Luc/AMY3R pool and HEK293/pGM-CREB-L-Luc/CTR pool was constructed. The polypeptide derivatives (i.e., AMY-001 to AMY-041) prepared in Examples 1 and 2 were subjected to 5-fold serial dilution from a maximum of 1000 nM to prepare a dilution series containing 8 to 11 concentration gradients. Cagrilintide and sCT were selected as positive controls for testing, and a dilution series was prepared according to the same method for testing. The test cell lines were selected and treated with cAMP-specific trypsin for digestion, and then suspended with 3 mL of serum-free DMEM medium by pipetting, and the cells were counted. 5 μL of IBMX (prepared with serum-free DMEM medium, 0.5 mM) and test cells (5 μL/7500 cells/well) were sequentially added to a 384-well plate, incubated under the conditions of 37° C., 5% CO2 for 30 minutes, then added with cAMP-d2 (5 μL, 1×) and Anti-cAMP-Cryptate (5 μL, 1×) and placed at room temperature for 1 hour. A HTRF value was determined by a chemiluminescence microplate reader, and the results were recorded. An activation curve was plotted using GraphPad Prism software to calculate an IC50 value of each polypeptide derivative. […] The IC50 values of some polypeptides were exemplarily shown in this example, see Table 3, FIG. 2 and FIG. 3 for details.
# [2] = molecular target: T2, CTR (Homo sapiens, UniProt P30988); test: HTRF cAMP assay, CTR; assay type: cell-based; details: HEK293/pGM-CREB-L-Luc/CTR pool, read-out: IC50 of receptor CTR
# T2 construct: expressed in transfected cells
# T2 sequence (P30988 25-474): T1 sequence (P30988 25-474)
# Source text: as §1, §2
Compound,EC50 [1] [nM],EC50 [2] [nM]
CC(=O)N[C@@H](C)C(=O)N[C@@H](CO)C(=O)N[C@@H](Cc1c[nH]cn1)C(=O)N[C@@H](CC(C)C)C(=O)N[C@@H](CO)C(=O)N[C@H](C(=O)N[C@@H](C)C(=O)N[C@H](C(=O)N[C@@H](CC(C)C)C(=O)NCC(=O)N[C@@H](CCCNC(=N)N)C(=O)N[C@@H](CC(C)C)C(=O)N[C@H]1CSCC(=O)NCCN(C(=O)CCC(=O)NCCOCCOCC(=O)NCCOCCOCC(=O)NCCCC[C@H](NC(=O)CCCCCCCCCCCCCCCCCCC(=O)O)C(=O)O)CCNC(=O)CSC[C@@H](C(=O)N[C@@H](CC(=O)O)C(=O)N[C@@H](Cc2ccc(O)cc2)C(=O)N2CCC[C@H]2C(=O)N[C@@H](CCCNC(=N)N)C(=O)N[C@H](C(=O)N[C@@H](CC(=O)O)C(=O)N[C@H](C(=O)NCC(=O)N[C@@H](C)C(=O)NCC(=O)N[C@@H](CO)C(=O)N2CCC[C@H]2C(N)=O)C(C)C)[C@@H](C)O)NC(=O)[C@H](CC(C)C)NC(=O)[C@H](CCCCN)NC(=O)[C@H](Cc2c[nH]cn2)NC(=O)[C@H](CC(C)C)NC(=O)[C@H](CCC(=O)O)NC(=O)[C@H](C)NC1=O)C(C)C)[C@@H](C)O [AMY-008] (Ac-ASHLSTAVLGRLCAELHKLCDYPRTDVGAGSP-NH2; linker 13-20 via X1),0.0713,0.0502
"CC(=O)N[C@@H](C)C(=O)N[C@@H](CO)C(=O)N[C@@H](Cc1c[nH]cn1)C(=O)N[C@@H](CC(C)C)C(=O)N[C@@H](CO)C(=O)N[C@H](C(=O)N[C@@H](C)C(=O)N[C@H]1CSCC(=O)NCCN(C(=O)CCC(=O)NCCOCCOCC(=O)NCCOCCOCC(=O)NCCCC[C@H](NC(=O)CCCCCCCCCCCCCCCCCCC(=O)O)C(=O)O)CCNC(=O)CSC[C@@H](C(=O)N[C@@H](CC(C)C)C(=O)N[C@@H](Cc2c[nH]cn2)C(=O)N[C@@](C)(CCCCN)C(=O)N[C@@H](CC(C)C)C(=O)NC(C)(C)C(=O)N[C@@H](CC(=O)O)C(=O)N[C@@H](Cc2ccc(O)cc2)C(=O)N2CCC[C@H]2C(=O)N(C)[C@@H](CCCNC(=N)N)C(=O)N[C@H](C(=O)N[C@@H](CC(=O)O)C(=O)N[C@H](C(=O)NCC(=O)N[C@@H](C)C(=O)NCC(=O)N[C@@H](CO)C(=O)N2CCC[C@H]2C(N)=O)C(C)C)[C@@H](C)O)NC(=O)[C@H](C)NC(=O)[C@H](CO)NC(=O)[C@H](CC(C)C)NC(=O)[C@H](CCCCNC(=N)N)NC(=O)CNC(=O)[C@H](CC(C)C)NC1=O)[C@@H](C)O [AMY-012, Ac-ASHLSTACLG-homoR-LSACLH-(αMeK)-L-Aib-DYP-(N-Me-R)-TDVGAGSP-NH2] (Ac-ASHLSTACLG[hArg]LSACLH[αMeK]L[Aib]DYP[NMeR]TDVGAGSP-NH2; linker 8-15 via X1)",0.0133,0.0357
"CC(=O)N[C@@H](C)C(=O)N[C@@H](CO)C(=O)N[C@@H](Cc1c[nH]cn1)C(=O)N[C@@](C)(CC(C)C)C(=O)N[C@@H](CO)C(=O)N[C@H](C(=O)N[C@@H](C)C(=O)N[C@H]1CSCC(=O)NCCN(C(=O)CCC(=O)NCCOCCOCC(=O)NCCOCCOCC(=O)NCCCC[C@H](NC(=O)CCCCCCCCCCCCCCCCCCC(=O)O)C(=O)O)CCNC(=O)CSC[C@@H](C(=O)N[C@@H](CC(C)C)C(=O)N[C@@H](Cc2c[nH]cn2)C(=O)N[C@@H](CCCCN)C(=O)N[C@@H](CC(C)C)C(=O)NC(C)(C)C(=O)N[C@@H](CC(=O)O)C(=O)N[C@@](C)(Cc2ccccc2)C(=O)N2CCC[C@H]2C(=O)N(C)[C@@H](CCCNC(=N)N)C(=O)N[C@H](C(=O)N[C@@H](CC(=O)O)C(=O)N[C@H](C(=O)NCC(=O)N[C@@H](C)C(=O)NCC(=O)N[C@@H](CO)C(=O)N2CCC[C@H]2C(N)=O)C(C)C)[C@@H](C)O)NC(=O)[C@H](C)NC(=O)[C@H](CO)NC(=O)[C@H](CC(C)C)NC(=O)[C@H](CCCNC(=N)N)NC(=O)CNC(=O)[C@H](CC(C)C)NC1=O)[C@@H](C)O [AMY-010, Ac-ASH-(aMeK)-STACLGRLSACLHKL-Aib-D-(αMeF)-P-(N-Me-R)-TDVGAGSP-NH2] (Ac-ASH[αMeL]STACLGRLSACLHKL[Aib]D[αMeF]P[NMeR]TDVGAGSP-NH2; linker 8-15 via X1)",0.0523,0.0415
"CC(=O)N[C@@H](C)C(=O)N[C@@H](CO)C(=O)N[C@@H](Cc1c[nH]cn1)C(=O)N[C@@H](CC(C)C)C(=O)N[C@@H](CO)C(=O)N[C@H](C(=O)N[C@@H](C)C(=O)N[C@H]1CCCCNC(=O)CN(C(=O)CCCNC(=O)COCCOCCNC(=O)COCCOCCNC(=O)CC[C@H](NC(=O)CCCCCCCCCCCCCCCCCCC(=O)O)C(=O)O)CC(=O)NCCCC[C@@H](C(=O)N[C@@H](CC(C)C)C(=O)N[C@@H](Cc2c[nH]cn2)C(=O)N[C@@](C)(CCCCN)C(=O)N[C@@H](CC(C)C)C(=O)NC(C)(C)C(=O)N[C@@H](CC(=O)O)C(=O)N[C@@H](Cc2ccc(O)cc2)C(=O)N2CCC[C@H]2C(=O)N[C@@H](CCC(N)=O)C(=O)N[C@H](C(=O)N[C@@H](CC(=O)O)C(=O)N[C@H](C(=O)NCC(=O)N[C@@H](C)C(=O)NCC(=O)N[C@@H](CO)C(=O)N2C[C@H](O)C[C@H]2C(N)=O)C(C)C)[C@@H](C)O)NC(=O)[C@H](C)NC(=O)[C@H](CO)NC(=O)[C@H](CC(C)C)NC(=O)[C@H](CCCNC(=N)N)NC(=O)CNC(=O)[C@H](CC(C)C)NC1=O)[C@@H](C)O [AMY-021, Ac-ASHLSTAKLGRLSAKLH-(αMeK)-L-Aib-DYPQTDVGAGS-Hyp-NH2]",0.0044,0.0012
"CC(=O)N[C@@H](C)C(=O)N[C@@H](CO)C(=O)N[C@@H](Cc1c[nH]cn1)C(=O)N[C@@H](CC(C)C)C(=O)N[C@@H](CO)C(=O)N[C@H](C(=O)N[C@H]1CSCC(=O)NCCN(C(=O)CCC(=O)NCCOCCOCC(=O)NCCOCCOCC(=O)NCCCC[C@H](NC(=O)CCCCCCCCCCCCCCCCCCC(=O)O)C(=O)O)CCNC(=O)CSC[C@@H](C(=O)N[C@@H](CCC(=O)O)C(=O)N[C@@H](CC(C)C)C(=O)N[C@@H](Cc2c[nH]cn2)C(=O)N[C@@H](CCCCN)C(=O)N[C@@H](CC(C)C)C(=O)NC(C)(C)C(=O)N[C@@H](CC(=O)O)C(=O)N[C@@H](Cc2ccc(O)cc2)C(=O)N2CCC[C@H]2C(=O)N[C@@H](CCCNC(=N)N)C(=O)N[C@H](C(=O)N[C@@H](CC(=O)O)C(=O)N[C@H](C(=O)NCC(=O)N[C@@H](C)C(=O)NCC(=O)N[C@@H](CO)C(=O)N2CCC[C@H]2C(N)=O)C(C)C)[C@@H](C)O)NC(=O)[C@H](CO)NC(=O)[C@H](CC(C)C)NC(=O)[C@H](CCCNC(=N)N)NC(=O)CNC(=O)[C@H](CC(C)C)NC(=O)[C@H](C(C)C)NC1=O)[C@@H](C)O [AMY-002, Ac ASHLSTCVLGRLSCELHKL-Aib-DYPRTDVGAGSP-NH2] (Ac-ASHLSTCVLGRLSCELHKL[Aib]DYPRTDVGAGSP-NH2; linker 7-14 via X1)",0.0671,0.0906
"CC[C@H](C)[C@H](NC(=O)[C@@H]1CCCN1C(=O)CNC(=O)[C@H](Cc1ccccc1)NC(=O)[C@H](CC(N)=O)NC(=O)[C@H](CC(N)=O)NC(=O)[C@H](CO)NC(=O)[C@H](CO)NC(=O)[C@H](Cc1c[nH]cn1)NC(=O)[C@H](CCCNC(=N)N)NC(=O)[C@H](CC(C)C)NC(=O)[C@H](Cc1ccccc1)NC(=O)[C@H](CCC(=O)O)NC(=O)[C@H](C)NC(=O)[C@H](CC(C)C)NC(=O)[C@H](CCCNC(=N)N)NC(=O)[C@H](CCC(N)=O)NC(=O)[C@@H](NC(=O)[C@H](C)NC(=O)[C@@H]1CSSC[C@H](NC(=O)[C@H](CCCCN)NC(=O)CC[C@H](NC(=O)CCCCCCCCCCCCCCCCCCC(=O)O)C(=O)O)C(=O)N[C@@H](CC(N)=O)C(=O)N[C@@H]([C@@H](C)O)C(=O)N[C@@H](C)C(=O)N[C@@H]([C@@H](C)O)C(=O)N1)[C@@H](C)O)C(=O)N[C@@H](CC(C)C)C(=O)N1CCC[C@H]1C(=O)N1CCC[C@H]1C(=O)N[C@H](C(=O)N[C@@H](CC(N)=O)C(=O)N[C@H](C(=O)NCC(=O)N[C@@H](CO)C(=O)N[C@@H](CC(N)=O)C(=O)N[C@H](C(=O)N1CCC[C@H]1C(N)=O)[C@@H](C)O)C(C)C)[C@@H](C)O [Cagrilintide, reference compound]",0.0123,–
